Patent US11723929B2, “Methods of improving cell-based therapy” (THE REGENTS OF THE UNIVERSITY OF CALIFORNIA, priority 2017, dated 2023)

How the values were obtained:
sEH [1] = target: T1, sEH (Homo sapiens (Human), UniProt P34913); assay: Inhibitory activity against sEH (Table 4); conditions: read-out: sEH
COX-1 = assay: Inhibitory activity against COX-1 (Table 4); assay type: biochemical; parameters: dose or concentration left out as unconfirmed
sEH [2] = target: T1, sEH; assay: Testing as inhibitor of sEH; assay type: biochemical
Description: Derivatives of urea are transition state mimetics that form a group of sEH inhibitors. […] Any particular urea derivative or other compound can be easily tested for its ability to inhibit sEH by standard assays, such as those discussed herein. The production and testing of urea and carbamate derivatives as sEH inhibitors is set forth in detail in, for example, Morisseau et al., Proc Natl Acad Sci (USA) 96:8849-8854 (1999).
(§1) Both the 1- and the 2-adamantyl ureas have been tested and have about the same high activity as an inhibitor of sEH.
One category of these inhibitors comprises inhibitors that mimic the substrate for the enzyme. The lipid alkoxides (e.g., the 9-methoxide of stearic acid) are an exemplar of this group of inhibitors.

Metabolic stability = assay type: in vitro ADME
Description: as §1

Exp. logP (Table 3) = assay type: physicochemical
[3] = PTZ Induced Seizure Model; Example 52 and FIG. 7 of WO 2015/148954; cited from earlier work
[4] = test system: murine myocardial infarction (MI) model; assay: In vivo bioluminescence imaging of transplanted hiPSC-CMs in the post MI model; conditions: NSG mice post MI with transplanted hiPSC-CMs, with or without TPPU 15 mg/L in drinking water; BLI at 3 and 4 weeks
PDE4 = PDE4 inhibition by cAMP increase in live HEK cells transfected with a PKA biosensor; assay type: cell-based, human; conditions: relative to Rolipram at 1 μM
[5] = test system: murine myocardial infarction (MI) model; assay: Flow cytometric quantification of GFP+ hiPSC-CMs in the post MI model; conditions: NSG mice post MI with transplanted hiPSC-CMs, with or without TPPU; after 4 weeks
[6] = cited from earlier work
[7] = test system: murine myocardial infarction (MI) model; assay: Echocardiography, left ventricular fractional shortening after MI; assay type: in vivo, mouse
Method: The animals were followed for a period of three weeks at which time repeat echocardiograms were performed.
An increase in hiPSC-CMs engraftment translated into a significant improvement in cardiac function.

SMILES | IC50 (sEH [1]) [nM] | COX-1 (% inhibition) (COX-1) | also measured
NS(=O)(=O)c1ccc(-n2nc(CCCNC(=O)Nc3ccc(Cl)cc3)cc2-c2ccccc2)cc1 [compound 2327, 4-(3-{3-[3-(4-Chloro-phenyl)-ureido]-propyl}-5-phenyl-pyrazol-1-yl)-benzenesulfonamide] | 0.8 ± 0.1 | 15.2 | –
NS(=O)(=O)c1ccc(-n2nc(CNC(=O)Nc3cccc(C(F)(F)F)c3)cc2-c2ccccc2)cc1 [compound 2107, 4-{5-Phenyl-3-[3-(3-trifluoromethyl-phenyl)-ureidomethyl]-pyrazol-1-yl}-benzenesulfonamide] | 84 ± 6 | 16.9 | –
NS(=O)(=O)c1ccc(-n2nc(CCCNC(=O)NC34CC5CC(CC(C5)C3)C4)cc2-c2ccccc2)cc1 [compound 2326, 4-{3-[3-(3-Adamantan-1-yl-ureido)-propyl]-5-phenyl-pyrazol-1-yl}-benzenesulfonamide] | 0.5 ± 0.1 | 6.7 | –
CS(=O)(=O)c1ccc(-n2nc(CNC(=O)Nc3ccc(C(F)(F)F)cc3)cc2-c2ccccc2)cc1 [compound 2324, 1-[1-(4-Methanesulfonyl-phenyl)-5-phenyl-1H-pyrazol-3-ylmethyl]-3-(4-trifluoromethyl-phenyl)-urea] | 110 ± 5 | 10.7 | –
CCCCCCCCCCCCNC(=O)NC12CC3CC(CC(C3)C1)C2 [ADU, N-Adamantyl-N′-dodecyl urea] | – | – | activity as inhibitor of sEH (sEH [2]): particularly high activity; metabolic stability (Metabolic stability): metabolically stable
CS(=O)(=O)c1ccc(-n2nc(CNC(=O)Nc3ccc(OC(F)(F)F)cc3)cc2-c2ccccc2)cc1 [compound 2323, 1-[1-(4-Methanesulfonyl-phenyl)-5-phenyl-1H-pyrazol-3-ylmethyl]-3-(4-trifluoromethoxy-phenyl)-urea] | 6 ± 0.5 | 10.4 | –
CS(=O)(=O)c1ccc(-n2nc(CCCNC(=O)Nc3cccc(C(F)(F)F)c3)cc2-c2ccccc2)cc1 [compound 1862, 1-{3-[1-(4-Methanesulfonyl-phenyl)-5-phenyl-1H-pyrazol-3-yl]-propyl}-3-(3-trifluoromethyl-phenyl)-urea] | 3.4 ± 0.2 | 6.4 | –
NS(=O)(=O)c1ccc(-n2nc(CCCNC(=O)Nc3ccc(OC(F)(F)F)cc3)cc2-c2ccccc2)cc1 [compound 2329, 4-(5-Phenyl-3-{3-[3-(4-trifluoromethoxy-phenyl)-ureido]-propyl}-pyrazol-1-yl)-benzenesulfonamide] | 0.5 ± 0.1 | 13.8 | –
CC(C)(C)c1cc(CNC(=O)Nc2cccc(C(F)(F)F)c2)nn1-c1ccc(S(C)(=O)=O)cc1 [compound 2106, 1-[5-tert-Butyl-1-(4-methanesulfonyl-phenyl)-1H-pyrazol-3-ylmethyl]-3-(3-trifluoromethyl-phenyl)-urea] | 32 ± 3 | 2.4 | –
O=C(Nc1ccc(C(F)(F)F)cc1)NC1CCN(C(=O)C2(C(F)(F)F)CC2)CC1 | – | – | logP (Exp. logP (Table 3)): 4.63
CC(C)c1cccc(C(C)C)c1NC(=O)NCCCc1cc(-c2ccccc2)n(-c2ccc(S(N)(=O)=O)cc2)n1 [compound 2325, 4-(3-{3-[3-(2,6-Diisopropyl-phenyl)-ureido]-propyl}-5-phenyl-pyrazol-1-yl)-benzenesulfonamide] | 1550 ± 70 | 6.2 | –
O=C(Nc1ccc(OC(F)(F)F)c(F)c1)NC1CCN(C(=O)C2CCOCC2)CC1 [1-(3-fluoro-4-(trifluoromethoxy)phenyl)-3-(1-(tetrahydro-2H-pyran-4-carbo-nyl)piperidin-4-yl)urea] | – | – | crossing of the blood-brain barrier [3]: cross the blood-brain barrier
CS(=O)(=O)c1ccc(-n2nc(CNC(=O)NC3CCCCCC3)cc2-c2ccccc2)cc1 [compound 2321, 1-Cycloheptyl-3-[1-(4-methanesulfonyl-phenyl)-5-phenyl-1H-pyrazol-3-ylmethyl]-urea] | 2.6 ± 0.3 | 3.4 | –
CS(=O)(=O)c1ccc(-n2nc(CNC(=O)Nc3ccccc3)cc2-c2ccccc2)cc1 [compound 2322, 1-[1-(4-Methanesulfonyl-phenyl)-5-phenyl-1H-pyrazol-3-ylmethyl]-3-phenyl-urea] | 47 ± 4 | – | –
CS(=O)(=O)c1ccc(-n2nc(CNC(=O)Nc3cccc(C(F)(F)F)c3)cc2-c2ccccc2)cc1 [compound 1861, 1-[1-(4-Methanesulfonyl-phenyl)-5-phenyl-1H-pyrazol-3-ylmethyl]-3-(3-trifluoromethyl-phenyl)-urea] | 72 ± 8 | 7.8 | –
CS(=O)(=O)c1ccc(-n2nc(CNC(=O)NC34CC5CC(CC(C5)C3)C4)cc2-c2ccccc2)cc1 [compound 1860, 1-Adamantan-1-yl-3-[1-(4-methanesulfonyl-phenyl)-5-phenyl-1H-pyrazol-3-ylmethyl]-urea] | 25 ± 1 | 12.7 | –
NS(=O)(=O)c1ccc(-n2nc(CCNC(=O)Nc3cccc(C(F)(F)F)c3)cc2-c2ccccc2)cc1 [compound 2313, 4-(5-Phenyl-3-{2-[3-(3-trifluoromethyl-phenyl)-ureido]-ethyl}-pyrazol-1-yl)-benzenesulfonamide] | 26 ± 3 | 22.0 | –
Cc1ccc(-c2cc(CCCNC(=O)Nc3cccc(C(F)(F)F)c3)nn2-c2ccc(S(N)(=O)=O)cc2)cc1 [compound 2152, 4-(5-p-Tolyl-3-{3-[3-(3-trifluoromethyl-phenyl)-ureido]-propyl}-pyrazol-1-yl)-benzenesulfonamide] | 10 ± 1 | 12.1 | –
NS(=O)(=O)c1ccc(-n2nc(NC(=O)Nc3cccc(C(F)(F)F)c3)cc2-c2ccccc2)cc1 [compound 2121, 4-{5-Phenyl-3-[3-(3-trifluoromethyl-phenyl)-ureido]-pyrazol-1-yl}-benzenesulfonamide] | 88 ± 5 | 33.9 | –
NS(=O)(=O)c1ccc(-n2nc(CCCNC(=O)Nc3cccc(C(F)(F)F)c3)cc2-c2ccccc2)cc1 [compound 2246, 4-(5-Phenyl-3-{3-[3-(3-trifluoromethyl-phenyl)-ureido]-propyl}-pyrazol-1-yl)-benzenesulfonamide] | 4.1 ± 0.4 | 27.2 | –
NS(=O)(=O)c1ccc(-n2nc(CCCNC(=O)NC3CCCCCC3)cc2-c2ccccc2)cc1 [compound 2247, 4-{3-[3-(3-Cycloheptyl-ureido)-propyl]-5-phenyl-pyrazol-1-yl}-benzenesulfonamide] | 0.5 ± 0.1 | 10.2 | –
NS(=O)(=O)c1ccc(-n2nc(CCCNC(=O)Nc3ccccc3)cc2-c2ccccc2)cc1 [compound 2245, 4-{5-Phenyl-3-[3-(3-phenyl-ureido)-propyl]-pyrazol-1-yl}-benzenesulfonamide] | 0.8 ± 0.1 | 15.8 | –
NS(=O)(=O)c1ccc(-n2nc(CCCNC(=O)Nc3ccc(C(F)(F)F)cc3)cc2-c2ccccc2)cc1 [compound 2328, 4-(5-Phenyl-3-{3-[3-(4-trifluoromethyl-phenyl)-ureido]-propyl}-pyrazol-1-yl)-benzenesulfonamide] | 0.9 ± 0.1 | 22.7 | –
CCC(=O)N1CCC(NC(=O)Nc2ccc(OC(F)(F)F)cc2)CC1 [TPPU] | – | – | BLI signal of transplanted GFP+ hiPSC-CMs [4]: 7.4×10^6±1.7×10^6 photons/s/cm^2/sr; cAMP increase (% of Rolipram) (PDE4): 40 ± 10 % of Rolipram; number of GFP+ hiPSC-CMs by flow cytometry [5]: 9.9±0.5%; half-life ([6]; compared with many previous compounds (ref. 50)): relatively longer half-life; area under the curve ([6]; in vivo): high area under the curve values; improvement of FS with both sEHI and cells ([7]; MI+hiPSC-CM+TPPU, highest compared to other treatment groups): 40%; left ventricular fractional shortening (FS), MI+hiPSC-CM+TPPU group ([7]; after three weeks of TPPU treatment (before treatment 44±6%)): 61±2%; fractional shortening (FS), MI+TPPU group ([7]; post treatment): 55±0.7%; fractional shortening (FS), MI+TPPU+Vehicle (PBS injection) group ([7]; post treatment): 51±2%
